# Experimental data reported in the supplement of paper PMC12463676, “Small-molecule dissolution of stress granules by redox modulation benefits ALS models” (Nature Chemical Biology, 2025).
# Key:
# [1] = compound: NC(=O)CCCCC1CCSS1 [lipoamide]; assay: thermal stability z-score vs DMSO; higher = more thermally stabilized by treatment; conditions: HeLa, lipoamide concentration 100 µM
# Protocol: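 Cellular thermal proteome profiling in HeLa cells. Cells were treated with 100 µM lipoamide for 1 h, with or without 1 mM arsenate for a further 1 h, then heated to ten temperatures (37-66.3 °C), and soluble protein was quantified by TMT mass spectrometry relative to 0.1% DMSO controls. The thermal stability score (sum of log2 fold changes minus the abundance score) was transformed to a z-score; mean of n = 3 experiments.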
# [2] = compound: O=[As]([O-])(O)O.[K+] [potassium arsenate]; assay: as above; conditions: HeLa; arsenate concentration 1 mM
# Protocol: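 Cellular thermal proteome profiling in HeLa cells treated with 1 mM arsenate for 1 h (DMSO pretreatment), heated to ten temperatures (37-66.3 °C). Soluble protein was quantified by TMT mass spectrometry relative to DMSO controls; the thermal stability score was transformed to a z-score; mean of n = 3 experiments.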
# [3] = arsenate co-treatment: 1 mM arsenate 1 h
# 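Also: each temperature applied for 3 min, abundance score taken as mean log2 fold change at the two lowest temperatures, z-score obtained by mean subtraction and division by SD.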
# UniProt Q8N0V5, sequence (Q8N0V5 whole entry): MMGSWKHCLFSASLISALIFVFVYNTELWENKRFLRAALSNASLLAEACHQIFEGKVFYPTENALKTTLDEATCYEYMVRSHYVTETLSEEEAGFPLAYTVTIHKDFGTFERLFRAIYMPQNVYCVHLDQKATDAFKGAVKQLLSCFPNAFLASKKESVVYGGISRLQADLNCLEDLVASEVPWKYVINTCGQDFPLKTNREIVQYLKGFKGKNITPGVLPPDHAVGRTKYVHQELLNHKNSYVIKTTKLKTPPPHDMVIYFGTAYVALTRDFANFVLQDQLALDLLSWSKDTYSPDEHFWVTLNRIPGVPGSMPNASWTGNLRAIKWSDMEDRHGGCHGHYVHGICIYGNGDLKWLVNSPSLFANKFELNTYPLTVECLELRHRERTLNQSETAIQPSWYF
# UniProt Q9P289, sequence (Q9P289 whole entry, looked up): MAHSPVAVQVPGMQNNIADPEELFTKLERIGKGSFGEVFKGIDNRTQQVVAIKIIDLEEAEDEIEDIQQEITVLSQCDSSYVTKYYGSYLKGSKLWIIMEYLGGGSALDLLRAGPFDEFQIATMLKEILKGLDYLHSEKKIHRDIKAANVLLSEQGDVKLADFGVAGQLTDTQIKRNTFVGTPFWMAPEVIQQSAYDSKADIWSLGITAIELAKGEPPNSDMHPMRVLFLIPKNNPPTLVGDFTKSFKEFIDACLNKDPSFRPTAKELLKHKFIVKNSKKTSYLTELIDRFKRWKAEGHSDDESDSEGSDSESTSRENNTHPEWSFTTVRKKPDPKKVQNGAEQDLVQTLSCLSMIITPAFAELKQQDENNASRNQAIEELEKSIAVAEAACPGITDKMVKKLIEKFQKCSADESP
# UniProt Q5D1E8, sequence (Q5D1E8 whole entry): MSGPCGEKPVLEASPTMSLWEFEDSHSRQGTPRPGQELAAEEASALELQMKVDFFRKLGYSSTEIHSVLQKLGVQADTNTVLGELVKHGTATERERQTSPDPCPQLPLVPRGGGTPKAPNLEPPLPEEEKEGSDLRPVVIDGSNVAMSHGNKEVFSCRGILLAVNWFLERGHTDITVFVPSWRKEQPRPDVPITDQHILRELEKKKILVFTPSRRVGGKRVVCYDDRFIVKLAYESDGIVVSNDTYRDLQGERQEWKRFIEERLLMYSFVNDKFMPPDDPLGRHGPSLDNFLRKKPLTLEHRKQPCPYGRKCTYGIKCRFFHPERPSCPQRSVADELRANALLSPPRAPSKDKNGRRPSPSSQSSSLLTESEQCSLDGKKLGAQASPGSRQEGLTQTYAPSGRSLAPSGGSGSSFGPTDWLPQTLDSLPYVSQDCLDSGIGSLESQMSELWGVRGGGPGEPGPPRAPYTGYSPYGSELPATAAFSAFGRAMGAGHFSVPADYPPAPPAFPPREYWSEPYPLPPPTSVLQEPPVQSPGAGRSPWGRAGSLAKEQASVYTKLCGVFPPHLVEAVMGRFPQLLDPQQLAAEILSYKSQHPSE
# UniProt Q9ULM6, sequence (Q9ULM6 whole entry): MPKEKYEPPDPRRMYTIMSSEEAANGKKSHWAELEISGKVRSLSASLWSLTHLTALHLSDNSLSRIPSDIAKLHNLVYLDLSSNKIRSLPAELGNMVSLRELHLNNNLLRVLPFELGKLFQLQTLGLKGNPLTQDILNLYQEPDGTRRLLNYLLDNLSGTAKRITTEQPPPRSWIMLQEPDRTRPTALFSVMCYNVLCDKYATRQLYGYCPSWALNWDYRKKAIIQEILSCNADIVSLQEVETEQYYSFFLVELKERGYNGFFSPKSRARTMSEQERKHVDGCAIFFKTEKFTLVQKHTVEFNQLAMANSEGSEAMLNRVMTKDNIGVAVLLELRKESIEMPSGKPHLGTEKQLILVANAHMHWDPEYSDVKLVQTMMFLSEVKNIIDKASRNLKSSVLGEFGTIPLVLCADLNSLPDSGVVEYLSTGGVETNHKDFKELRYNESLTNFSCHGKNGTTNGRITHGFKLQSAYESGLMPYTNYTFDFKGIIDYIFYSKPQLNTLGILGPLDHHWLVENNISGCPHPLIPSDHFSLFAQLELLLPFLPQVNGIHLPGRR
# UniProt Q9NX74, sequence (Q9NX74 whole entry): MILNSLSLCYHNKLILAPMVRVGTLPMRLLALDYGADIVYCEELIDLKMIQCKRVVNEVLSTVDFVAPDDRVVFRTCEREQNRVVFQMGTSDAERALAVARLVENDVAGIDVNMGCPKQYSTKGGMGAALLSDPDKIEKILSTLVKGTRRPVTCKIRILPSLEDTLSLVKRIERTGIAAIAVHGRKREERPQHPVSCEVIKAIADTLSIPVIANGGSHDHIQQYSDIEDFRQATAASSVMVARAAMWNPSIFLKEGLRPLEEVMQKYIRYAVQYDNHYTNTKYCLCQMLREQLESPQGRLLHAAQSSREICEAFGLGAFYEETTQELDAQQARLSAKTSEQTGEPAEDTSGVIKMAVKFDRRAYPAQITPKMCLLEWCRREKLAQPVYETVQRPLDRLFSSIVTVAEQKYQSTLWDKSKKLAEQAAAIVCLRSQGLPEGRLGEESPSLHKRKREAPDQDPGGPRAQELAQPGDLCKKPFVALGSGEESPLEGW
# UniProt P48067, sequence (P48067 whole entry): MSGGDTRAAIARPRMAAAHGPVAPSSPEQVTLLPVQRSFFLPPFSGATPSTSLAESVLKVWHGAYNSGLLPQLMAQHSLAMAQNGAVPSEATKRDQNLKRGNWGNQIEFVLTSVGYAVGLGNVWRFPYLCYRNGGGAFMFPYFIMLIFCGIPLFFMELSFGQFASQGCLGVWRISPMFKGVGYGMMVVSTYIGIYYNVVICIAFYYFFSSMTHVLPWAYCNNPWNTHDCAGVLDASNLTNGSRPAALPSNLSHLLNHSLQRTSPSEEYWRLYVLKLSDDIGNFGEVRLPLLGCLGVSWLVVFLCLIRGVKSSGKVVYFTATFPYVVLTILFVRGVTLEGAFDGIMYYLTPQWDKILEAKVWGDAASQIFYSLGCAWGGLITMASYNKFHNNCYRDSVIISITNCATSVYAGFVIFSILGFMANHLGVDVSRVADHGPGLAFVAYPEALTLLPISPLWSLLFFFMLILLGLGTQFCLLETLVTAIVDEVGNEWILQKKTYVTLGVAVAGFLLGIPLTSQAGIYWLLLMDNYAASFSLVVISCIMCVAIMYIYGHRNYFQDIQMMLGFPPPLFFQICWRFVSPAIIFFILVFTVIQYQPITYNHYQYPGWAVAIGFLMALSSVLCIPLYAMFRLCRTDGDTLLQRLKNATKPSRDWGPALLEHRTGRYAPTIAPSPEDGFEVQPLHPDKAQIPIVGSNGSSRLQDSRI
# UniProt A6NJ78, sequence (A6NJ78 whole entry): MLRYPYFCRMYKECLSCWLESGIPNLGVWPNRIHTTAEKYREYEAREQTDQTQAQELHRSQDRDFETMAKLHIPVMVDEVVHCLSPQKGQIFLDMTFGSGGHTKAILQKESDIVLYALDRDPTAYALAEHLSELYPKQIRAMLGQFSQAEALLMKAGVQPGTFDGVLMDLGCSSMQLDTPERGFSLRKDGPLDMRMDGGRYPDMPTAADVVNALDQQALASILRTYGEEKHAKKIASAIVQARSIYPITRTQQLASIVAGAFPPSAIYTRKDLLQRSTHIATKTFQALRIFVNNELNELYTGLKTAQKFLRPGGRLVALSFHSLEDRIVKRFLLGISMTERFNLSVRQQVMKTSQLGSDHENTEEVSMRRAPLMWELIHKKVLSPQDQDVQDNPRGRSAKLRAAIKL
# UniProt Q9NSC5, sequence (Q9NSC5 whole entry): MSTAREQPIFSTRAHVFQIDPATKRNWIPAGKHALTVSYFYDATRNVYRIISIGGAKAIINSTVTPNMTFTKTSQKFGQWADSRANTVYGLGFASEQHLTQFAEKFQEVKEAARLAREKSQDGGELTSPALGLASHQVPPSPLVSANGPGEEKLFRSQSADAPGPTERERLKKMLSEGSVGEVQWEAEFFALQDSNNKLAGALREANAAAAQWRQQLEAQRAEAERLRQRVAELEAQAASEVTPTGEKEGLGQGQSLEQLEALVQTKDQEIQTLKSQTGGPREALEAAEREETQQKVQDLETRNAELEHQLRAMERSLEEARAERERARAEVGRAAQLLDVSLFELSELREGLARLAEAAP
# UniProt Q9H8M2, sequence (Q9H8M2 whole entry): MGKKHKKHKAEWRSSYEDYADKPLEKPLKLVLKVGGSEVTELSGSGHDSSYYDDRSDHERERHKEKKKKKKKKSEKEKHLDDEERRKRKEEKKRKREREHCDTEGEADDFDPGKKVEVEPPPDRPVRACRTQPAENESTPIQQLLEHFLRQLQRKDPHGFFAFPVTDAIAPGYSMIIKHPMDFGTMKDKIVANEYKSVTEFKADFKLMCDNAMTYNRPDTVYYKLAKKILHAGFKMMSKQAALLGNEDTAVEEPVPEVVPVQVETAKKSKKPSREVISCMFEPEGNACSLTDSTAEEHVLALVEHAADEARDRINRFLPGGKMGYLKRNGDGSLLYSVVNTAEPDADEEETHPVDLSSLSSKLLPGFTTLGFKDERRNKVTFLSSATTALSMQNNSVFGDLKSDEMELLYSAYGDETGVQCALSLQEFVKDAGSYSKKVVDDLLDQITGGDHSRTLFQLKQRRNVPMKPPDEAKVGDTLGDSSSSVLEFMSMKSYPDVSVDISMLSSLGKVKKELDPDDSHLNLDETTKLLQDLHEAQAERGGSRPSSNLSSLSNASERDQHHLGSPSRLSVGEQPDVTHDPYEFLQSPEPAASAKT
# UniProt Q9H4F8, sequence (Q9H4F8 whole entry): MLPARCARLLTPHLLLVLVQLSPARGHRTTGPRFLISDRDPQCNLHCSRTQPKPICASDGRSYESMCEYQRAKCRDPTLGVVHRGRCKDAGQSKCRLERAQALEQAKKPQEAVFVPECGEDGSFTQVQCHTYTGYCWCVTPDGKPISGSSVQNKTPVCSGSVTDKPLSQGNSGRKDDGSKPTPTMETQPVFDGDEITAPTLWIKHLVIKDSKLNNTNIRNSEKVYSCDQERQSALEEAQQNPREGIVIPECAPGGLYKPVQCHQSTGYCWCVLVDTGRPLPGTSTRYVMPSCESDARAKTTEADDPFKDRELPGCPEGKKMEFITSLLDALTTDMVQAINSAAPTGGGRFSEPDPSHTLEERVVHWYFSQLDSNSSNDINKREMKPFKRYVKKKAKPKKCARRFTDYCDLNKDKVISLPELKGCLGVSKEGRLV
Target,"thermal stability z-score [1, 3]",thermal stability z-score ([1]; arsenate co-treatment: none),thermal stability z-score [2]
PYGL (UniProt P06737),0.968,0.345,-0.513
DPH1 (UniProt Q9BZG8),-0.233,-0.119,-1.29
GAPVD1 (UniProt Q14C86),-0.367,-0.206,0.0188
HMGA1 (UniProt P17096),-0.361,0.993,-0.692
PLCL2 (UniProt Q9UPR0),-0.2,-0.373,-0.417
SMOC1 (UniProt Q9H4F8),-0.587,-0.458,-1.55
TARBP1 (UniProt Q13395),-0.285,-0.136,0.121
KMT2D (UniProt O14686),-0.298,-0.455,-0.661
SMARCB1 (UniProt Q12824),-0.25,-0.186,-0.198
SNRPA (UniProt P09012),0.0421,-0.126,0.938
EIF3L (UniProt Q9Y262),0.23,0.373,-0.297
ZC3H12A (UniProt Q5D1E8),0.0783,-0.187,-0.189
STK26 (UniProt Q9P289),0.681,1.24,1.4
TOM1 (UniProt O60784),0.231,-0.536,0.244
PEO1 (UniProt Q96RR1),-0.0405,0.0511,0.122
HOMER3 (UniProt Q9NSC5),0.5,0.526,0.462
HSCB (UniProt Q8IWL3),0.0143,0.667,0.175
CAPZA2 (UniProt P47755),-0.00372,0.906,0.697
CSPG4 (UniProt Q6UVK1),-0.203,-0.907,-0.945
PTGR1 (UniProt Q14914),1.49,1.67,0.672
CORO1C (UniProt Q9ULV4),-1.05,-0.614,1.13
POLR3E (UniProt Q9NVU0),0.0246,0.108,-0.126
PHYH (UniProt O14832),0.0197,-0.12,-0.196
RAB1B (UniProt Q9H0U4),0.238,0.549,0.196
ZNFX1 (UniProt Q9P2E3),0.113,1.85,2.01
PEPD (UniProt P12955),0.359,0.112,-0.732
BRD9 (UniProt Q9H8M2),0.218,0.153,0.496
STOML2 (UniProt Q9UJZ1),-0.324,0.0393,-0.147

Target,"thermal stability z-score [1, 3]",thermal stability z-score ([1]; arsenate co-treatment: none),thermal stability z-score [2]
COPS7B (UniProt Q9H9Q2),-0.144,-0.241,-0.241
RAB3IL1 (UniProt Q8TBN0),-0.235,0.559,-0.89
BAZ1B (UniProt Q9UIG0),-0.152,-0.073,0.21
CREBBP (UniProt Q92793),0.397,-0.0649,-0.693
PIP5K1A (UniProt Q99755),-0.948,-0.813,0.951
DUS2 (UniProt Q9NX74),-0.517,0.0964,-0.452
ARMC6 (UniProt Q6NXE6),-0.546,-0.743,1.37
LSM8 (UniProt O95777),1.17,0.47,-0.214
DXO (UniProt O77932),0.186,0.216,0.0286
RPS20 (UniProt P60866),1.14,1.14,-0.0402
C1ORF123 (UniProt Q9NWV4),-0.384,-0.409,-0.929
CHD9 (UniProt Q3L8U1),-0.0359,-0.0662,0.384
INPP5F (UniProt Q9Y2H2),-0.128,-0.261,0.13
CXORF38 (UniProt Q8TB03),0.486,0.307,-1.87
PRCP (UniProt P42785),-0.242,-0.33,0.42
CNOT6 (UniProt Q9ULM6),-0.197,-0.108,0.03
IMPDH1 (UniProt P20839),-0.546,-0.319,1.28
METTL15 (UniProt A6NJ78),0.0439,-0.103,0.348
SLC6A9 (UniProt P48067),-0.26,-0.8,-0.636
LDAH (UniProt Q9H6V9),-0.0856,-0.00844,0.0377
CSNK1A1 (UniProt P48729),-0.534,-0.478,1.08
GHDC (UniProt Q8N2G8),-0.848,0.229,0.229
BCKDK (UniProt O14874),0.0555,-0.559,0.935
BUB1 (UniProt O43683),-0.0469,0.0303,0.029
RNF5 (UniProt Q99942),-0.0839,0.142,-0.145
GCNT2 (UniProt Q8N0V5),0.367,-0.158,-0.125
HMG20A (UniProt Q9NP66),0.359,-0.371,0.344
